Assay results from patent US20250230193A1, “CYCLIC COMPOUND HAVING SELECTIVE KRAS INHIBITORY EFFECT ON HRAS AND NRAS” (CHUGAI SEIYAKU KABUSHIKI KAISHA, priority 2022, published 2025).
Where a SMILES comes first, the peptide text is derived from it. Bridges are numbered along the chain shown (N, C = ends). [ ]: non-standard residue; d: D form. The star is where a group is joined. hPhe(3-Cl-4-CF3) = N[C@@H](CCc1ccc(C(F)(F)F)c(Cl)c1)C(=O)O; NPrPhe(4-CF3) = CCCN[C@@H](Cc1ccc(C(F)(F)F)cc1)C(=O)O; NMeGly(cPent) = CN[C@H](C(=O)O)C1CCCC1; NMeD = CN[C@@H](CC(=O)O)C(=O)O; NMeL = CN[C@@H](CC(C)C)C(=O)O; Morpholide = C1CN(*)CCO1; Sar = CNCC(=O)O

Columns and labels:
[1] = target: GDP-bound NRAS wild-type protein (Homo sapiens, UniProt P01111); experiment: Binding to NRAS by surface plasmon resonance (SPR), Single Cycle Kinetics; conditions: KD ratio NRAS/KRAS
GDP-bound NRAS wild-type protein, sequence (P01111 whole entry): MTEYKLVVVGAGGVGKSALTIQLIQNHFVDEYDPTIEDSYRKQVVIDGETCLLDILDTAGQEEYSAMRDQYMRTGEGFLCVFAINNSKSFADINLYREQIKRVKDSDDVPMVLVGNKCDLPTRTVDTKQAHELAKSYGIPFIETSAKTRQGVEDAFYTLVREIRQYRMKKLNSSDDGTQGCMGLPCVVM

[2] = target: GDP-bound HRAS wild-type protein (Homo sapiens, UniProt P01112); experiment: Binding to HRAS by surface plasmon resonance (SPR), Single Cycle Kinetics; conditions: KD ratio HRAS/KRAS
GDP-bound HRAS wild-type protein, sequence (P01112 whole entry): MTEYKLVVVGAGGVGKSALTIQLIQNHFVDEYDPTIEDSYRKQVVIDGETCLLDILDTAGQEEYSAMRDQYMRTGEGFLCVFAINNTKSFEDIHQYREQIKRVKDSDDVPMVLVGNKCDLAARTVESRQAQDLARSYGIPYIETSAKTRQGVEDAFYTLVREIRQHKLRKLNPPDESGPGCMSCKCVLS

[3] = SPR, GDP-bound wild-type proteins

| Compound | NRAS/KRAS (ratio of KD value with respect to GDP-bound NRAS wild-type protein to KD value with respect to KRAS) ([1]; SPR) | HRAS/KRAS (ratio of KD value with respect to GDP-bound HRAS wild-type protein to KD value with respect to KRAS) ([2]; SPR) | NRAS/KRAS (ratio of KD value with respect to GDP-bound NRAS wild-type protein to KD value with respect to KRAS) ([1]; class symbols) | HRAS/KRAS (ratio of KD value with respect to GDP-bound HRAS wild-type protein to KD value with respect to KRAS) ([2]; class symbols) | also measured |
| --- | --- | --- | --- | --- | --- |
| CCO[C@@H]1C[C@H]2C(=O)NC3(CCC3)C(=O)N(C)[C@@H](C3CCCC3)C(=O)N(CCc3ccccc3)[C@H](C(=O)N3CCOCC3)CC(=O)N(C)[C@@H](CC(C)C)C(=O)N[C@@H]([C@@H](C)CC)C(=O)N(C)CC(=O)N(C)[C@H]3CCCCN(C3=O)[C@@H](Cc3ccc(C(F)(F)F)cc3)C(=O)N(C)CC(=O)N[C@@H](CCc3cc(F)c(C(F)(F)F)c(F)c3)C(=O)N2C1 [PP0652] | B (a compound having 3 or more and less than 10 is denoted as B) | B (a compound having 3 or more and less than 10 is denoted as B) |  |  |  |
| CCO[C@@H]1C[C@H]2C(=O)NC3(CCC3)C(=O)N(C)[C@@H](C3CCCC3)C(=O)N(C)[C@H](C(=O)N(C)C)CC(=O)N(C)[C@@H](CC3CCCC3)C(=O)N[C@@H]([C@@H](C)CC)C(=O)N(C)CC(=O)N(C)[C@H]3CCCCCN(C3=O)[C@@H](Cc3ccc(C(F)(F)F)cc3)C(=O)N(C)CC(=O)N[C@@H](CCc3cc(F)c(C(F)(F)F)c(F)c3)C(=O)N2C1 [PP0670] | B (a compound having 3 or more and less than 10 is denoted as B) | B (a compound having 3 or more and less than 10 is denoted as B) |  |  |  |
| CCCN1C(=O)CN(C)C(=O)CN(C)C(=O)[C@H]([C@@H](C)CC)NC(=O)[C@H](CC(C)C)N(C)C(=O)C[C@@H](C(=O)N2CCOCC2)N(C)C(=O)[C@H](C2CCCC2)N(C)C(=O)[C@@H](C)NC(=O)[C@@H]2CCCN2C(=O)[C@H](CCc2ccc(C(F)(F)F)c(Cl)c2)NC(=O)CN(C)C(=O)[C@@H]1Cc1ccc(C(F)(F)F)cc1 [PP0150] ([NMeL]I[Sar][Sar][NPrPhe(4-CF3)][Sar][hPhe(3-Cl-4-CF3)]P[dA][NMeGly(cPent)][NMeD]-Morpholide; lactam N-11) |  |  |  |  | NRAS/KRAS (ratio of KD for GDP-bound NRAS wild-type to KD for KRAS) ([1]; SPR): B (a compound having 3 or more and less than 10 is denoted as B); HRAS/KRAS (ratio of KD for GDP-bound HRAS wild-type to KD for KRAS) ([2]; SPR): C (A compound having a KD ratio of 0.1 or more and less than 3 is denoted as C) |
| CCC[C@H]1C(=O)N[C@@H](C2CCOCC2)C(=O)N(C)CC(=O)N(C)[C@H]2C/C=C\CCN(C2=O)[C@@H](Cc2ccc(C(F)(F)F)cc2)C(=O)N(C)CC(=O)N[C@@H](CCc2ccc(C(F)(F)F)c(Cl)c2)C(=O)N2C[C@H](OCC)C[C@H]2C(=O)NC2(CC(C)(C)C2)C(=O)N(C)[C@@H](C2CCCC2)C(=O)N(C)[C@H](C(=O)N(C)C)CC(=O)N1C [PP3000] |  |  |  |  | NRAS/KRAS (ratio of KD value with respect to GDP-bound NRAS wild-type protein to KD value with respect to KRAS) [1, 3]: AA (a compound having 20 or more is denoted as AA); HRAS/KRAS (ratio of KD value with respect to GDP-bound HRAS wild-type protein to KD value with respect to KRAS) [2, 3]: A (a compound having 10 or more and less than 20 is denoted as A) |
| CCC[C@H]1C(=O)N[C@@H]([C@@H](C)CC)C(=O)N(C)CC(=O)N(C)[C@H]2C/C=C\CCN(C2=O)[C@@H](Cc2ccc(C)cc2)C(=O)N(C)CC(=O)N[C@@H](CCc2ccc(Cl)c(OC)c2)C(=O)N2C[C@H](OCC)C[C@H]2C(=O)NC2(CC(C)(C)C2)C(=O)N(C)[C@@H](C2CCCC2)C(=O)N(C)[C@H](C(=O)N(C)C)CC(=O)N1C [PP2790] |  |  | A (a compound having 10 or more and less than 20 is denoted as A) | A (a compound having 10 or more and less than 20 is denoted as A) |  |
| CCO[C@@H]1C[C@H]2C(=O)NC3(CC(C)(C)C3)C(=O)N(C)[C@@H](C3CCCC3)C(=O)N(C)[C@H](C(=O)N3CCCCC3)CC(=O)N(C)[C@@H](COC)C(=O)N[C@@H]([C@@H](C)CC)C(=O)N(C3CC3)CC(=O)N(C)[C@H]3C/C=C\CCN(C3=O)[C@@H](Cc3ccc(C(F)(F)F)cc3)C(=O)N(C)CC(=O)N[C@@H](CCc3cc(F)c(C(F)(F)F)c(F)c3)C(=O)N2C1 [PP2666] |  |  | AA (a compound having 20 or more is denoted as AA) | AA (a compound having 20 or more is denoted as AA) |  |
